According to patent publication US20090042188A1, “Agent for Differentiating Hematopoietic Stem Cell Into Natural Killer Cell Comprising Vdup1 Protein or Gene Encoding the Same, and a Method of Differentiating Hematopoietic Stem Cell Into Natural Killer Cell Using Thereof” (Korea Research Institute of Bioscience and Biotechnology, priority 2005, published 2009):

Legend:
mature NK cells = assay: 51Cr release assay of mature spleen NK cells treated with IL-2 and vitamin D3; assay type: cell-based; conditions: mature NK cells from wild type mouse spleen, vitamin D3 together with IL-2 for 24 hours (FIG. 17)
Experimental: FIG. 17 is a graph showing the cytotoxicity of mature NK cells, separated from spleen of a wild type mouse, and then treated with IL-2 and/or vitamin D3 for 24 hours, detected by ^51Cr release assay.
(§1) NK cells, differentiated in vitro or isolated from spleen, were treated with IL-2 (10 u/ml), followed by culture for 24 hours. After being washed, NK cells were plated, according to ratios of effector cells to target cells, into a 96 well plate (well round bottom plate, Falcon, USA) containing target cells (^51Cr-labeled Yac-1 cells, 10^4/well), followed by further culture for 4 hours. Upon completion of the culture, radioactivity of 100 ul of supernatant was measured by γ counter (FIG. 9).
Further, mature NK cells were isolated from spleen of a wild type mouse. The cells were treated with vitamin D3 together with IL-2 for 24 hours, followed by ^51Cr release assay (FIG. 17).

Yac-1 = assay: 51Cr release assay of NK cells differentiated in vitro under vitamin D3; assay type: cell-based, mouse; conditions: 10 nM vitamin D3 during differentiation, compared with vitamin D3 non-treating group (FIG. 16)
Experimental: FIG. 16 is a graph showing the cytotoxicity, investigated by ^51Cr release assay, of NK cells for a target cell ‘Yac-1’ developed under the treatment of low concentration of vitamin D3 (10 nM). E/T means the ratio of effective cells to target cells.
as §1
To investigate the effect of vitamin D3, known to regulate VDUP1, on NK cell development, 1,25-dihydroxy vitamin D(3) was treated to each stage of differentiation from mouse HSCs into mNK cells via pNK. The cells were matured by the culture in the presence of OP9 and IL-15, then FACS analysis (FIG. 15) and ^51Cr release assay (FIG. 16) were performed.

mouse HSCs = assay: NK cell differentiation from HSCs under vitamin D3 treatment, FACS analysis of NK1.1-positive cells; assay type: cell-based; conditions: vitamin D3 treated at each stage HSC to pNK to mNK; culture with OP9 and IL-15; FACS (FIG. 15)
Experimental: FIG. 15 is a set of graphs showing the result of FACS analysis with NK cell group positive for NK1.1. Vitamin D3 was treated during the whole procedure of differentiation from HSCs of a wild type mouse into mNK via pNK, which was progressed by the cell culture in the presence of OP9 and IL-15, resulting in the confirmation of NK cell group positive for NK1.1.
HSCs isolated from bone marrow in the above Example 1 were inoculated into 6-well plate (Falcon, USA) using a complete RPMI medium supplemented with mouse SCF (30 ng/ ? , BioSource, Camarillo, Calif.), mouse Flt3L (50 ng/ ? , PeproTech, Rocky Hill, N.J.), mouse IL-7 (0.5 ng/ ? , PeproTech), indomethacin (2 g/ ? , Sigma), gentamycin (20 g/ ? ) and 10% fetal bovine serum, at the concentration of 2×10^6 cells/well. The cells were cultured in a 37° C., 5% CO2 incubator for 6 days. […] The purity of the pNK cells was determined by FACS, confirming over 92% purity.
To generate mature NK cells (referred as “mNK cells” hereinafter), collected HSCs were cultured with or without OP9 stromal cells (Science, 265: 1098-1101, 1994) in the presence of mouse IL-15 (20 ng/ ? , PeproTech, USA). […] The purity of the mature NK cells was determined by flow cytometry (FACS) using anti-CD122, NK1.1, DX-5 and NK cell receptor antibodies. […]

Structure (SMILES): C=C1/C(=C\C=C2/CCC[C@]3(C)[C@@H]([C@H](C)CCCC(C)(C)O)CC[C@@H]23)C[C@@H](O)C[C@@H]1O [vitamin D3, 1,25-dihydroxy vitamin D(3)]
- NK mediated cytotoxicity (mature NK cells): increased
- NK mediated cytotoxicity for Yac-1 (Yac-1): increased
- NK cell population (NK1.1 positive) (mouse HSCs): increased by vitamin D3 in a dose dependent manner
